Test results published in ChEMBL document CHEMBL5550090, “Synthesis and biological evaluation of 1H-pyrrolo[3,2-g]isoquinolines” (Bioorg Med Chem, 2024).

Legend:
[1] = target: Dual specificity protein kinase CLK1 (Mus musculus) (UniProt P22518); assay: Inhibition of recombinant mouse CLK1 expressed in bacteria assessed as enzyme residual activity using GRSRSRSRSRSR as substrate at 10 uM incubated for 30 mins in presence of ATP by ADP-Glo kinase assay
[2] = target: Dual specificity protein kinase CLK1 (Mus musculus) (UniProt P22518); assay: Inhibition of recombinant mouse CLK1 expressed in bacteria assessed as enzyme residual activity using GRSRSRSRSRSR as substrate at 1 uM incubated for 30 mins in presence of ATP by ADP-Glo kinase assay
[3] = target: Dual specificity tyrosine-phosphorylation-regulated kinase 1A (Rattus norvegicus) (UniProt Q63470); assay: Inhibition of recombinant rat DYRK1A kinase domain (1 to 499 residues) expressed in bacteria assessed as enzyme residual activity using KKISGRLSPIMTEQ as substrate at 10 uM incubated for 30 mins in presence of ATP by ADP-Glo kinase assay
[4] = target: Dual specificity tyrosine-phosphorylation-regulated kinase 1A (Rattus norvegicus) (UniProt Q63470); assay: Inhibition of recombinant rat DYRK1A kinase domain (1 to 499 residues) expressed in bacteria assessed as enzyme residual activity using KKISGRLSPIMTEQ as substrate at 1 uM incubated for 30 mins in presence of ATP by ADP-Glo kinase assay
[5] = target: T1, CDK9/cyclin T1 (Homo sapiens) (UniProt O60563+P50750); assay: Inhibition of human recombinant CDK9/cyclin T expressed in baculovirus-infected Sf9 cells assessed as enzyme residual activity using YSPTSPSYSPTSPSYSPTSPSKKKK as substrate at 10 uM incubated for 30 mins in presence of ATP by ADP-Glo kinase assay
[6] = target: T1, CDK9/cyclin T1 (Homo sapiens); assay: Inhibition of human recombinant CDK9/cyclin T expressed in baculovirus-infected Sf9 cells assessed as enzyme residual activity using YSPTSPSYSPTSPSYSPTSPSKKKK as substrate at 1 uM incubated for 30 mins in presence of ATP by ADP-Glo kinase assay
[7] = target: Glycogen synthase kinase-3 beta (Homo sapiens) (UniProt P49841); assay: Inhibition of human recombinant GSK-3 beta expressed in baculovirus-infected Sf9 cells assessed as enzyme residual activity using YRRAAVPPSPSLSRHSSPHQSpEDEEE as substrate at 10 uM incubated for 30 mins in presence of ATP by ADP-Glo kinase assay
Sequence of Glycogen synthase kinase-3 beta (Homo sapiens) (P49841 whole entry, looked up, canonical isoform): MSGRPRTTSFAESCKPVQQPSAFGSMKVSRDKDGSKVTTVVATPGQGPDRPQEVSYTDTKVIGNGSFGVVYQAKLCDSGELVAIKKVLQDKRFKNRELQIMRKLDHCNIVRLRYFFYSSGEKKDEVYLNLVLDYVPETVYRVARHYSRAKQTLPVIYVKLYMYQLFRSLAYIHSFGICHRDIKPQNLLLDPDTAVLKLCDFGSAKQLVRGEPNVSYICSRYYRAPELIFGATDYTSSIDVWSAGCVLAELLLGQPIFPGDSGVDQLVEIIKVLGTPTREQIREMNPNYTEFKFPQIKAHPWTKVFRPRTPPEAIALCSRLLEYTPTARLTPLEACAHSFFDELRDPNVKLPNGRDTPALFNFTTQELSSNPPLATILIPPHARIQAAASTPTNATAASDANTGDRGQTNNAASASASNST

[8] = target: Glycogen synthase kinase-3 beta (Homo sapiens) (UniProt P49841); assay: Inhibition of human recombinant GSK-3 beta expressed in baculovirus-infected Sf9 cells assessed as enzyme residual activity using YRRAAVPPSPSLSRHSSPHQSpEDEEE as substrate at 1 uM incubated for 30 mins in presence of ATP by ADP-Glo kinase assay
[9] = target: Casein kinase I isoform epsilon (Homo sapiens) (UniProt P49674); assay: Inhibition of human recombinant CK1 epsilon expressed in baculovirus-infected Sf9 cells assessed as enzyme residual activity using RRKHAAIGSpAYSITA as substrate at 10 uM incubated for 30 mins in presence of ATP by ADP-Glo kinase assay
Sequence of Casein kinase I isoform epsilon (Homo sapiens) (P49674 whole entry, looked up, canonical isoform): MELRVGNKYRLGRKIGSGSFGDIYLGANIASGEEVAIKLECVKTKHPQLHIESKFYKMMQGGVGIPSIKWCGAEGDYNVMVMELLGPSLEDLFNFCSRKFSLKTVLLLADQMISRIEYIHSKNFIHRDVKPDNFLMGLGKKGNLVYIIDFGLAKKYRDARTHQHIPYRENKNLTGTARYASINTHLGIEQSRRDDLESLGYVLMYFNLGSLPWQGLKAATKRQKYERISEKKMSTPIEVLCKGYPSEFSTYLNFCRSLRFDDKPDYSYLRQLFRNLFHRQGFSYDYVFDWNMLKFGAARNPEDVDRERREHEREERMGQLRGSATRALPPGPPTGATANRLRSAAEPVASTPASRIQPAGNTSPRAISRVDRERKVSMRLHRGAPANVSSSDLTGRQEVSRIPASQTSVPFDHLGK

[10] = target: Casein kinase I isoform epsilon (Homo sapiens) (UniProt P49674); assay: Inhibition of human recombinant CK1 epsilon expressed in baculovirus-infected Sf9 cells assessed as enzyme residual activity using RRKHAAIGSpAYSITA as substrate at 1 uM incubated for 30 mins in presence of ATP by ADP-Glo kinase assay
[11] = target: T2, Cyclin-dependent kinase 5/CDK5 activator 1 (Homo sapiens) (UniProt Q00535+Q15078); assay: Inhibition of human recombinant CDK5/p25 expressed in bacteria assessed as enzyme residual activity using histone H1 as substrate at 10 uM incubated for 30 mins in presence of ATP by ADP-Glo kinase assay
T2 sequence (Q00535 whole entry): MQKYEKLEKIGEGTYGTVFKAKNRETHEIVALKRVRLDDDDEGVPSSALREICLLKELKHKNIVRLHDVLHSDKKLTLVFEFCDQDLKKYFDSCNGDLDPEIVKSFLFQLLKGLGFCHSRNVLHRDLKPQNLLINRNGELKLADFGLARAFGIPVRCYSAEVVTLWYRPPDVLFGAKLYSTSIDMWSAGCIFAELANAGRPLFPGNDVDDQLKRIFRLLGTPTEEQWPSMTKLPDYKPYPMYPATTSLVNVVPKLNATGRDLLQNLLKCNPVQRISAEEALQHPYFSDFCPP
T2 sequence (Q15078 99-307 partner limits assumed): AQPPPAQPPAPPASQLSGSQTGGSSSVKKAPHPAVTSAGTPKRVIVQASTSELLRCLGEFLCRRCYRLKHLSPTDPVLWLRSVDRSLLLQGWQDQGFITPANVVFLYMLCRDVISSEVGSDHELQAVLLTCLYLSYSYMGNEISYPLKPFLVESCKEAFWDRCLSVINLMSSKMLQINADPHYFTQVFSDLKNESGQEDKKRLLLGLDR

[12] = target: T2, Cyclin-dependent kinase 5/CDK5 activator 1 (Homo sapiens); assay: Inhibition of human recombinant CDK5/p25 expressed in bacteria assessed as enzyme residual activity using histone H1 as substrate at 1 uM incubated for 30 mins in presence of ATP by ADP-Glo kinase assay
[13] = target: T3, Serine/threonine-protein kinase pim-1 (Homo sapiens, UniProt P11309); assay: Inhibition of human recombinant PIM-1 expressed in bacteria assessed as enzyme residual activity using histone H1 as substrate at 10 uM incubated for 30 mins in presence of ATP by ADP-Glo kinase assay
Target sequence in this assay (P11309 whole entry, looked up): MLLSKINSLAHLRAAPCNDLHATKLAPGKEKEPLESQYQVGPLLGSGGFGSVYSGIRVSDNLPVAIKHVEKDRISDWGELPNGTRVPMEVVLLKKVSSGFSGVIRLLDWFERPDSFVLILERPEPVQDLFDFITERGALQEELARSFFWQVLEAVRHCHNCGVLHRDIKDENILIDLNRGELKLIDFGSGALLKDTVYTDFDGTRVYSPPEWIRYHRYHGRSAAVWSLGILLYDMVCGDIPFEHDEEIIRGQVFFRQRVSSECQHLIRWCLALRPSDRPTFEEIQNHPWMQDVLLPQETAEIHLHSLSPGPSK

[14] = target: T3, Serine/threonine-protein kinase pim-1; assay: Inhibition of human recombinant PIM-1 expressed in bacteria assessed as enzyme residual activity using histone H1 as substrate at 1 uM incubated for 30 mins in presence of ATP by ADP-Glo kinase assay
Target sequence in this assay (P11309 whole entry, looked up): as above

U2OS [15] = assay: Induction of cell cycle arrest in human U2OS cells assessed as proportion of cells at G1 phase at 2.5 uM incubated for 24 hrs by flow cytometry (reference value: 45%); assay type: functional
U2OS [16] = assay: Induction of cell cycle arrest in human U2OS cells assessed as proportion of cells at S phase at 2.5 uM incubated for 24 hrs by flow cytometry (reference value: 39%); assay type: functional
U2OS [17] = assay: Induction of cell cycle arrest in human U2OS cells assessed as proportion of cells at G2/M phase at 2.5 uM incubated for 24 hrs by flow cytometry (reference value: 16%); assay type: functional
U2OS [18] = assay: Induction of cell cycle arrest in human U2OS cells assessed as proportion of cells at G1 phase at 5 uM incubated for 24 hrs by flow cytometry (reference value: 45%); assay type: functional
U2OS [19] = assay: Induction of cell cycle arrest in human U2OS cells assessed as proportion of cells at S phase at 5 uM incubated for 24 hrs by flow cytometry (reference value: 39%); assay type: functional
U2OS [20] = assay: Induction of cell cycle arrest in human U2OS cells assessed as proportion of cells at G2/M phase at 5 uM incubated for 24 hrs by flow cytometry (reference value: 16%); assay type: functional
TERT-RPE1 = assay: cells; details: Homo sapiens, RPE-1, 48 h
Description: Cytotoxicity against human TERT-RPE1 cells assessed as reduction in cell viability incubated for 48 hrs by MTS assay

HBL-100 = assay: cells; details: Homo sapiens, HBL-100, 48 h
Description: Antiproliferative activity against human HBL-100 cells assessed as reduction in cell viability incubated for 48 hrs by MTS assay

HCT-116 = assay: cells; details: Homo sapiens, HCT-116, 48 h
Description: Antiproliferative activity against human HCT-116 cells assessed as reduction in cell viability incubated for 48 hrs by MTS assay

SH-SY5Y = assay: cells; details: Homo sapiens, 48 h
Description: Antiproliferative activity against human SH-SY5Y cells assessed as reduction in cell viability incubated for 48 hrs by MTS assay

U2OS [21] = assay: cells; details: Homo sapiens, 48 h
Description: Antiproliferative activity against human U2OS cells assessed as reduction in cell viability incubated for 48 hrs by MTS assay

[22] = target: T4, Serine/threonine-protein kinase haspin (Homo sapiens, UniProt Q8TF76); assay: Inhibition of recombinant human Haspin kinase domain (470 to 798 residues) expressed in bacteria using histone H3 (1 to 21) peptide as substrate incubated for 30 mins in presence of ATP by ADP-Glo kinase assay
T4 sequence (Q8TF76 whole entry): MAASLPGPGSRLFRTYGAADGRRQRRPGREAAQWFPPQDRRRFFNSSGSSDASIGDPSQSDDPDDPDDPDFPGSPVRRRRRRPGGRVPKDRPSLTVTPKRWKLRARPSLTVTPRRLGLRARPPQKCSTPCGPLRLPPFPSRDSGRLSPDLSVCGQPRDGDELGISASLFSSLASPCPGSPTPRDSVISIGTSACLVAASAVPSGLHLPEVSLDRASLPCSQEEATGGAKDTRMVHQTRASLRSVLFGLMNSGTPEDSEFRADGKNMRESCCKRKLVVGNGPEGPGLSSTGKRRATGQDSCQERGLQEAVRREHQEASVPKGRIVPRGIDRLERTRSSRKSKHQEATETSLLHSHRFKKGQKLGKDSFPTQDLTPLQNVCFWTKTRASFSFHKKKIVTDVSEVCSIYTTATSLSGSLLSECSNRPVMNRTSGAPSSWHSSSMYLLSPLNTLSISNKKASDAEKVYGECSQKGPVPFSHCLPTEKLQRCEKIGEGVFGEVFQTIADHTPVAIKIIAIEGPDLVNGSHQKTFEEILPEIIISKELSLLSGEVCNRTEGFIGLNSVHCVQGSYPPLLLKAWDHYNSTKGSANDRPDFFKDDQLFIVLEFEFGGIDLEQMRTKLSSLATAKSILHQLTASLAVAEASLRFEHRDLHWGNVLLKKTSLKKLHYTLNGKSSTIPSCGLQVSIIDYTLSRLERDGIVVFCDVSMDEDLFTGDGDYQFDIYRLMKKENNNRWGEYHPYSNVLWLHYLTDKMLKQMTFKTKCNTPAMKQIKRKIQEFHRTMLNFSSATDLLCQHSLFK

[23] = target: Dual specificity protein kinase CLK1 (Mus musculus, UniProt P22518); assay: Inhibition of recombinant mouse CLK1 expressed in bacteria using GRSRSRSRSRSR as substrate incubated for 30 mins in presence of ATP by ADP-Glo kinase assay
Sequence of Dual specificity protein kinase CLK1 (P22518 whole entry, the tested form may be a part): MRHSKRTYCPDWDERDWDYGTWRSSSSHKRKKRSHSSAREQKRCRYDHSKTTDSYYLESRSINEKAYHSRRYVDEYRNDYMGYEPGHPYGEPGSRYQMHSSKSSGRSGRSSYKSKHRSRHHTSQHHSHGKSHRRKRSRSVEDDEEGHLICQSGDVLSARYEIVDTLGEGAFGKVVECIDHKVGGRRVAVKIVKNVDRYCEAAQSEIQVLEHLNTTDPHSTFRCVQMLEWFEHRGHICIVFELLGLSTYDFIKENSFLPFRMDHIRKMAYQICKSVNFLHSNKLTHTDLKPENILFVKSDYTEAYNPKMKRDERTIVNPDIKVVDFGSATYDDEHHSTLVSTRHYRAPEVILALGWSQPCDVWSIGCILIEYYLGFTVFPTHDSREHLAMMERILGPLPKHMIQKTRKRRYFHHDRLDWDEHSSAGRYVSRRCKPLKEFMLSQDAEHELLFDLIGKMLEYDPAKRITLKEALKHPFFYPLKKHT

[24] = target: Dual specificity tyrosine-phosphorylation-regulated kinase 1A (Rattus norvegicus, UniProt Q63470); assay: Inhibition of recombinant rat DYRK1A kinase domain (1 to 499 residues) expressed in bacteria using KKISGRLSPIMTEQ as substrate incubated for 30 mins in presence of ATP by ADP-Glo kinase assay
[25] = target: T3, Serine/threonine-protein kinase pim-1; assay: Inhibition of human recombinant PIM-1 expressed in bacteria using histone H1 as substrate incubated for 30 mins in presence of ATP by ADP-Glo kinase assay
Target sequence in this assay (P11309 whole entry): as the sequence (P11309 whole entry, looked up) above

U2OS [26] = assay: Induction of cell cycle arrest in human U2OS cells assessed as proportion of cells at G1 phase at 0.5 uM incubated for 24 hrs by flow cytometry (reference value: 45%); assay type: functional
U2OS [27] = assay: Induction of cell cycle arrest in human U2OS cells assessed as proportion of cells at S phase at 0.5 uM incubated for 24 hrs by flow cytometry (reference value: 39%); assay type: functional
U2OS [28] = assay: Induction of cell cycle arrest in human U2OS cells assessed as proportion of cells at G2/M phase at 0.5 uM incubated for 24 hrs by flow cytometry (reference value: 16%); assay type: functional

Sequence of Dual specificity protein kinase CLK1 (Mus musculus) (P22518 whole entry, looked up, the tested form may be a part): as the sequence (P22518 whole entry, the tested form may be a part) above

Structure (SMILES): CCn1ncc2cc3cnccc3c(N)c21
- Activity [1]: 8%
- Activity [2]: 34%
- Activity [3]: 6%
- Activity [4]: 23%
- Activity [5]: 50%
- Activity [6]: 80%
- Activity [7]: 42%
- Activity [8]: 82%
- Activity [9]: 48%
- Activity [10]: 84%
- Activity [11]: 28%
- Activity [12]: 65%
- Activity [13]: 60%
- Activity [14]: 91%
- Activity (U2OS [15]): 44%
- Activity (U2OS [16]): 40%
- Activity (U2OS [17]): 16%
- Activity (U2OS [18]): 32%
- Activity (U2OS [19]): 43%
- Activity (U2OS [20]): 25%
- EC50 (TERT-RPE1): 300 nM
- EC50 (HBL-100): 7300 nM
- EC50 (HCT-116): 1200 nM
- EC50 (SH-SY5Y): 1200 nM
- EC50 (U2OS [21]): 2700 nM

Structure (SMILES): c1cc(-c2c[nH]c3cc4cnccc4cc23)ccn1
- IC50 [22]: 76 nM
- Activity [1]: 17%
- Activity [2]: 46%
- IC50 [23]: 693 nM
- Activity [3]: 11%
- Activity [4]: 46%
- IC50 [24]: 513 nM
- Activity [5]: 38%
- Activity [6]: 78%
- Activity [7]: 54%
- Activity [8]: 92%
- Activity [9]: 25%
- Activity [10]: 61%
- Activity [11]: 10%
- Activity [12]: 79%
- Activity [13]: 9%
- Activity [14]: 49%
- IC50 [25]: 479 nM
- Activity (U2OS [15]): 48%
- Activity (U2OS [16]): 39%
- Activity (U2OS [17]): 13%
- Activity (U2OS [18]): 37%
- Activity (U2OS [19]): 45%
- Activity (U2OS [20]): 18%
- EC50 (TERT-RPE1): 7800 nM
- EC50 (HBL-100): 24100 nM
- EC50 (HCT-116): 7300 nM
- EC50 (SH-SY5Y): 20000 nM
- EC50 (U2OS [21]): 11200 nM

Structure (SMILES): CCCNc1ccc2ncc(-c3ccc4[nH]ncc4c3)n2n1
- Activity (U2OS [26]): 38%
- Activity (U2OS [27]): 44%
- Activity (U2OS [28]): 18%
